These results are taken from PMC5218480 (PLoS ONE, 2017).

This test concerns MV-4-11 cells. The test can be described thus: Gene expression microarray analysis (Affymetrix PrimeView) and GSEA. It is filed as cell-based, human. On the set-up: RFU PODN (11730768_x_at) / Fold change /veh PODN (11730768_x_at) / RFU LINC00158 (11744669_a_at) / Fold change /veh LINC00158 (11744669_a_at) / RFU DUSP10 (11751237_a_at) / Fold change /veh DUSP10 (11751237_a_at) / RFU ID3 (11757404_x_at) / Fold change /veh ID3 (11757404_x_at) / RFU PLEKHG5 (11737974_s_at) / Fold change /veh PLEKHG5 (11737974_s_at) / RFU LRRC4B (11730491_at) / Fold change /veh LRRC4B (11730491_at) / RFU GIMAP4 (11747438_a_at) / Fold change /veh GIMAP4 (11747438_a_at) / RFU KRT8 (11758183_x_at) / Fold change /veh KRT8 (11758183_x_at) / RFU CNN1 (11734310_a_at) / Fold change /veh CNN1 (11734310_a_at) / RFU VPS37D (11726825_at) / Fold change /veh VPS37D (11726825_at) / RFU C10orf10 (11716522_x_at) / Fold change /veh C10orf10 (11716522_x_at) / RFU KIR2DL2 /// KIR2DL4 /// KIR2DL5A /// KIR2DL5B /// KIR2DS1 /// KIR2DS2 /// KIR2DS3 /// KIR2DS4 /// KIR3DL3 /// KIR3DL3 /// KIR3DS1 (11738374_at) / Fold change /veh KIR2DL2 /// KIR2DL4 /// KIR2DL5A /// KIR2DL5B /// KIR2DS1 /// KIR2DS2 /// KIR2DS3 /// KIR2DS4 /// KIR3DL3 /// KIR3DL3 /// KIR3DS1 (11738374_at) / RFU C1QL1 (11718748_at) / Fold change /veh C1QL1 (11718748_at) / RFU TMPRSS4 (11747572_a_at) / Fold change /veh TMPRSS4 (11747572_a_at) / RFU HAMP (11756126_x_at) / Fold change /veh HAMP (11756126_x_at) / RFU RNFT2 (11725882_a_at) / Fold change /veh RNFT2 (11725882_a_at) / RFU NR4A2 (11747474_a_at) / Fold change /veh NR4A2 (11747474_a_at) / RFU ABCC12 (11746883_a_at) / Fold change /veh ABCC12 (11746883_a_at) / RFU TMEM136 (11760407_x_at) / Fold change /veh TMEM136 (11760407_x_at) / RFU CLDN22 /// WWC2 (11732394_at) / Fold change /veh CLDN22 /// WWC2 (11732394_at) / RFU HLA-DPB1 (11760878_x_at) / Fold change /veh HLA-DPB1 (11760878_x_at) / RFU SPINT1 (11716480_a_at) / Fold change /veh SPINT1 (11716480_a_at) / RFU GAP43 (11754022_s_at) / Fold change /veh GAP43 (11754022_s_at) / RFU A4GNT (11735810_at) / Fold change /veh A4GNT (11735810_at) / RFU PRB3 (11715151_x_at) / Fold change /veh PRB3 (11715151_x_at) / RFU TUBB4B (11761932_at) / Fold change /veh TUBB4B (11761932_at) / RFU CAPN14 (11732068_a_at) / Fold change /veh CAPN14 (11732068_a_at) / RFU TMCC2 (11721928_a_at) / Fold change /veh TMCC2 (11721928_a_at) / RFU IRGQ (11745062_a_at) / Fold change /veh IRGQ (11745062_a_at) / RFU FAM174B (11720279_a_at) / Fold change /veh FAM174B (11720279_a_at) / RFU TMPRSS4 (11748680_a_at) / Fold change /veh TMPRSS4 (11748680_a_at) / RFU FAM212B (11763350_a_at) / Fold change /veh FAM212B (11763350_a_at) / RFU PLEKHG5 (11743358_a_at) / Fold change /veh PLEKHG5 (11743358_a_at) / RFU ZSCAN30 (11745921_a_at) / Fold change /veh ZSCAN30 (11745921_a_at) / RFU CMKLR1 (11741424_a_at) / Fold change /veh CMKLR1 (11741424_a_at) / RFU LOC101060620 /// MAPK8IP1 (11723275_at) / Fold change /veh LOC101060620 /// MAPK8IP1 (11723275_at) / RFU SPTSSB (11747773_x_at) / Fold change /veh SPTSSB (11747773_x_at) / RFU PRSS12 (11739890_at) / Fold change /veh PRSS12 (11739890_at) / RFU BIN1 (11741810_x_at) / Fold change /veh BIN1 (11741810_x_at) / RFU WNT11 (11732464_a_at) / Fold change /veh WNT11 (11732464_a_at) / RFU C10orf10 (11716521_a_at) / Fold change /veh C10orf10 (11716521_a_at) / RFU C5orf56 (11738089_at) / Fold change /veh C5orf56 (11738089_at) / RFU CYB561 (11721691_x_at) / Fold change /veh CYB561 (11721691_x_at) / RFU ANKRD19P (11752326_a_at) / Fold change /veh ANKRD19P (11752326_a_at) / RFU OR2T12 /// OR2T33 /// OR2T8 (11738714_s_at) / Fold change /veh OR2T12 /// OR2T33 /// OR2T8 (11738714_s_at) / RFU VCAN (11748164_a_at) / Fold change /veh VCAN (11748164_a_at) / RFU JSRP1 (11732532_at) / Fold change /veh JSRP1 (11732532_at) / RFU KRTAP10-11 (11738290_x_at) / Fold change /veh KRTAP10-11 (11738290_x_at) / RFU MYO3A (11730013_a_at) / Fold change /veh MYO3A (11730013_a_at) / RFU EBF3 (11725865_a_at) / Fold change /veh EBF3 (11725865_a_at) / RFU CAMK2N1 (11719241_x_at) / Fold change /veh CAMK2N1 (11719241_x_at) / RFU C5orf56 (11738088_a_at) / Fold change /veh C5orf56 (11738088_a_at) / RFU OLFML3 (11715873_a_at) / Fold change /veh OLFML3 (11715873_a_at) / RFU LOC100653217 /// NTM (11731650_a_at) / Fold change /veh LOC100653217 /// NTM (11731650_a_at) / RFU MAPK11 (11762145_a_at) / Fold change /veh MAPK11 (11762145_a_at) / RFU FIZ1 (11724087_x_at) / Fold change /veh FIZ1 (11724087_x_at) / RFU OASL (11726364_x_at) / Fold change /veh OASL (11726364_x_at) / RFU SOX15 (11748057_x_at) / Fold change /veh SOX15 (11748057_x_at) / RFU CD79A (11719716_a_at) / Fold change /veh CD79A (11719716_a_at) / RFU HIST1H1D (11736915_at) / Fold change /veh HIST1H1D (11736915_at) / RFU CASKIN2 (11723855_a_at) / Fold change /veh CASKIN2 (11723855_a_at) / RFU LOC730098 (11760151_x_at) / Fold change /veh LOC730098 (11760151_x_at) / RFU OR4N2 (11742367_at) / Fold change /veh OR4N2 (11742367_at) / RFU PRRT2 (11749266_a_at) / Fold change /veh PRRT2 (11749266_a_at) / RFU SNX32 (11753110_a_at) / Fold change /veh SNX32 (11753110_a_at) / RFU CDHR5 (11726645_a_at) / Fold change /veh CDHR5 (11726645_a_at) / RFU RCAN1 (11760418_a_at) / Fold change /veh RCAN1 (11760418_a_at) / RFU FAM167A (11723789_a_at) / Fold change /veh FAM167A (11723789_a_at) / RFU FAM26E (11764081_at) / Fold change /veh FAM26E (11764081_at) / RFU ISYNA1 (11749810_s_at) / Fold change /veh ISYNA1 (11749810_s_at) / RFU ACY1 (11761880_at) / Fold change /veh ACY1 (11761880_at) / RFU 11764098_at / Fold change /veh 11764098_at / RFU SAMD14 (11745864_x_at) / Fold change /veh SAMD14 (11745864_x_at) / RFU NPB (11741838_a_at) / Fold change /veh NPB (11741838_a_at) / RFU TMPRSS6 (11731388_a_at) / Fold change /veh TMPRSS6 (11731388_a_at) / RFU KRTAP10-2 (11738614_at) / Fold change /veh KRTAP10-2 (11738614_at) / RFU ARHGAP8 /// PRR5-ARHGAP8 (11727945_x_at) / Fold change /veh ARHGAP8 /// PRR5-ARHGAP8 (11727945_x_at) / RFU KRTAP5-7 /// NADSYN1 (11734609_at) / Fold change /veh KRTAP5-7 /// NADSYN1 (11734609_at) / RFU RASL12 (11751679_a_at) / Fold change /veh RASL12 (11751679_a_at) / RFU CDKN2B (11736163_a_at) / Fold change /veh CDKN2B (11736163_a_at) / RFU PRF1 (11729649_at) / Fold change /veh PRF1 (11729649_at) / RFU, ZNF638 /// ZNF638-IT1 / Fold change vs veh, ZNF638 /// ZNF638-IT1 / RFU, PANK3 / Fold change vs veh, PANK3 / RFU, SH3YL1 / Fold change vs veh, SH3YL1 / RFU, ZEB2 / Fold change vs veh, ZEB2 / RFU, NRIP1 / Fold change vs veh, NRIP1 / RFU, PTTG1IP / Fold change vs veh, PTTG1IP / RFU, CAPN2 / Fold change vs veh, CAPN2 / RFU, MED14 / Fold change vs veh, MED14 / RFU, SNORA58 / Fold change vs veh, SNORA58 / RFU, C1orf63 / Fold change vs veh, C1orf63 / RFU, LRRFIP1 / Fold change vs veh, LRRFIP1 / RFU, NDUFAF7 / Fold change vs veh, NDUFAF7 / RFU, SLC12A2 / Fold change vs veh, SLC12A2 / RFU, IBTK / Fold change vs veh, IBTK / RFU, ESF1 / Fold change vs veh, ESF1 / Fold change vs veh, TMEM50B / RFU, TAOK1 / Fold change vs veh, TAOK1 / RFU, ACBD3 / Fold change vs veh, ACBD3 / RFU, TMA16 / Fold change vs veh, TMA16 / RFU, RWDD3 / Fold change vs veh, RWDD3 / RFU, BCAT1 / Fold change vs veh, BCAT1 / RFU, EDEM3 / Fold change vs veh, EDEM3 / RFU, TMEM33 / Fold change vs veh, TMEM33 / RFU, WDR75 / Fold change vs veh, WDR75 / RFU, AHCTF1 / Fold change vs veh, AHCTF1 / RFU, TFRC / Fold change vs veh, TFRC / RFU, ZDHHC17 / Fold change vs veh, ZDHHC17 / RFU, NOM1 / Fold change vs veh, NOM1 / RFU, ARL8B / Fold change vs veh, ARL8B / RFU, ZBTB11 / Fold change vs veh, ZBTB11 / RFU, TAMM41 / Fold change vs veh, TAMM41 / RFU, KIAA1704 /// LOC100996395 / Fold change vs veh, KIAA1704 /// LOC100996395 / RFU, ING1 / Fold change vs veh, ING1 / RFU, TRMT61B / Fold change vs veh, TRMT61B / RFU, FUBP3 / Fold change vs veh, FUBP3 / RFU, TP53 / Fold change vs veh, TP53 / RFU, TNKS2 / Fold change vs veh, TNKS2 / RFU, ZFP14 / Fold change vs veh, ZFP14 / RFU, ACTR2 / Fold change vs veh, ACTR2 / RFU, PPP3R1 / Fold change vs veh, PPP3R1 / RFU, PIK3R1 / Fold change vs veh, PIK3R1 / RFU, HNRNPA1 / Fold change vs veh, HNRNPA1 / RFU, RNF170 / Fold change vs veh, RNF170 / RFU, ZNF28 / Fold change vs veh, ZNF28 / RFU, RNGTT / Fold change vs veh, RNGTT / RFU, OGT / Fold change vs veh, OGT / RFU, BRD1 / Fold change vs veh, BRD1 / RFU, MARS / Fold change vs veh, MARS / RFU, ZNF655 / Fold change vs veh, ZNF655 / RFU, FAHD1 / Fold change vs veh, FAHD1 / RFU, BDP1 / Fold change vs veh, BDP1 / RFU, LRRCC1 / Fold change vs veh, LRRCC1 / RFU, ARID1A / Fold change vs veh, ARID1A / RFU, ZNF146 / Fold change vs veh, ZNF146 / RFU, ZNF330 / Fold change vs veh, ZNF330 / RFU, GPN3 / Fold change vs veh, GPN3 / RFU, C9orf123 / Fold change vs veh, C9orf123 / RFU, N4BP2L2 / Fold change vs veh, N4BP2L2 / RFU, ARFIP1 / Fold change vs veh, ARFIP1 / RFU, FAM179B / Fold change vs veh, FAM179B / RFU, BCL10 / Fold change vs veh, BCL10 / RFU, UHRF1BP1L / Fold change vs veh, UHRF1BP1L / RFU, BET1 / Fold change vs veh, BET1 / RFU, CNOT2 / Fold change vs veh, CNOT2 / RFU, ZNF268 / Fold change vs veh, ZNF268 / Fold change vs veh, ZNF507 / RFU, DGCR2 / Fold change vs veh, DGCR2 / RFU, WDSUB1 / Fold change vs veh, WDSUB1 / Fold change vs veh, HSP90B1 /// MIR3652 / RFU, ADSS / Fold change vs veh, ADSS / RFU, GK / Fold change vs veh, GK / RFU, ZNF148 / Fold change vs veh, ZNF148 / RFU, TAF9 / Fold change vs veh, TAF9 / RFU, SLC1A5 / Fold change vs veh, SLC1A5 / RFU, SLMO2 / Fold change vs veh, SLMO2 / RFU, ABCC4 / Fold change vs veh, ABCC4 / RFU, LOC101060439 /// RAP1B / Fold change vs veh, LOC101060439 /// RAP1B / RFU, RFX7 / Fold change vs veh, RFX7 / RFU, GTPBP10 / Fold change vs veh, GTPBP10 / RFU, CNEP1R1 / Fold change vs veh, CNEP1R1 / RFU, BIVM-ERCC5 /// ERCC5 / Fold change vs veh, BIVM-ERCC5 /// ERCC5 / RFU, ILF3 / Fold change vs veh, ILF3 / RFU 11762660_at / Fold change /veh 11762660_at / RFU VCAN (11757783_s_at) / Fold change /veh VCAN (11757783_s_at) / RFU DDX43 (11728927_at) / Fold change /veh DDX43 (11728927_at) / RFU KRT8 (11758188_x_at) / Fold change /veh KRT8 (11758188_x_at) / RFU NKD1 (11759106_at) / Fold change /veh NKD1 (11759106_at) / RFU SRD5A1 (11742802_a_at) / Fold change /veh SRD5A1 (11742802_a_at) / RFU TPSAB1 /// TPSB2 (11721975_s_at) / Fold change /veh TPSAB1 /// TPSB2 (11721975_s_at) / RFU GSTM3 (11746129_a_at) / Fold change /veh GSTM3 (11746129_a_at) / RFU IL23R (11737362_x_at) / Fold change /veh IL23R (11737362_x_at) / RFU TMEM51 (11727254_a_at) / Fold change /veh TMEM51 (11727254_a_at) / RFU PIWIL2 (11732686_x_at) / Fold change /veh PIWIL2 (11732686_x_at) / RFU ORM1 (11744905_x_at) / Fold change /veh ORM1 (11744905_x_at) / RFU CCDC152 (11743942_at) / Fold change /veh CCDC152 (11743942_at) / RFU ECM1 (11717891_a_at) / Fold change /veh ECM1 (11717891_a_at) / RFU IL23R (11748794_a_at) / Fold change /veh IL23R (11748794_a_at) / RFU TNFAIP8L3 (11732012_x_at) / Fold change /veh TNFAIP8L3 (11732012_x_at) / RFU MBOAT4 (11741988_at) / Fold change /veh MBOAT4 (11741988_at) / RFU 11764193_at / Fold change /veh 11764193_at / RFU TMEM53 (11763286_at) / Fold change /veh TMEM53 (11763286_at) / RFU MAGEB2 (11727129_at) / Fold change /veh MAGEB2 (11727129_at) / RFU TMEM200A (11744735_a_at) / Fold change /veh TMEM200A (11744735_a_at) / RFU CCDC152 (11751479_a_at) / Fold change /veh CCDC152 (11751479_a_at) / RFU FAM211A (11726209_a_at) / Fold change /veh FAM211A (11726209_a_at) / RFU RGS16 (11746705_a_at) / Fold change /veh RGS16 (11746705_a_at) / RFU VCAN (11755009_s_at) / Fold change /veh VCAN (11755009_s_at) / RFU RHOB (11743442_s_at) / Fold change /veh RHOB (11743442_s_at) / RFU RGS16 (11720943_a_at) / Fold change /veh RGS16 (11720943_a_at) / RFU RGS16 (11720944_at) / Fold change /veh RGS16 (11720944_at) / RFU, VPS4B / Fold change vs veh, VPS4B / RFU, CREB1 / Fold change vs veh, CREB1 / RFU, DNAJC13 / Fold change vs veh, DNAJC13 / RFU, GNAQ / Fold change vs veh, GNAQ / RFU, CDK5R1 / Fold change vs veh, CDK5R1 / RFU, ZRANB3 / Fold change vs veh, ZRANB3 / RFU, CUL4A / Fold change vs veh, CUL4A / RFU, CCNY / Fold change vs veh, CCNY / RFU, UFL1 / Fold change vs veh, UFL1 / RFU, COG3 / Fold change vs veh, COG3 / RFU, DIAPH2 / Fold change vs veh, DIAPH2 / RFU, SKA2 / Fold change vs veh, SKA2 / RFU, AFF3 / Fold change vs veh, AFF3 / RFU, LMF1 / Fold change vs veh, LMF1 / RFU, IPO11 / Fold change vs veh, IPO11 / RFU, DFFB / Fold change vs veh, DFFB / RFU, FOXP1 / Fold change vs veh, FOXP1 / RFU, CARD8 / Fold change vs veh, CARD8 / RFU, STRN3 / Fold change vs veh, STRN3 / RFU, ADK / Fold change vs veh, ADK / RFU, RASSF2 / Fold change vs veh, RASSF2 / RFU, WIPF1 / Fold change vs veh, WIPF1 / RFU, LARP1B / Fold change vs veh, LARP1B / RFU, RASA1 / Fold change vs veh, RASA1 / RFU, RB1 / Fold change vs veh, RB1 / RFU, PPFIA1 / Fold change vs veh, PPFIA1 / RFU, MAT2A / Fold change vs veh, MAT2A / RFU, CCT5 / Fold change vs veh, CCT5 / RFU, WDR92 / Fold change vs veh, WDR92 / RFU, CUX1 / Fold change vs veh, CUX1 / RFU, TTC7A / Fold change vs veh, TTC7A / RFU, TMEM135 / Fold change vs veh, TMEM135 / RFU, DEPTOR / Fold change vs veh, DEPTOR / RFU, CPM / Fold change vs veh, CPM / RFU, DNAJB6 / Fold change vs veh, DNAJB6 / RFU, CACNA2D3 / Fold change vs veh, CACNA2D3 / RFU, DTX4 / Fold change vs veh, DTX4 / RFU, TFCP2 / Fold change vs veh, TFCP2 / RFU, GMCL1 /// GMCL1P1 / Fold change vs veh, GMCL1 /// GMCL1P1 / RFU, AEBP2 / Fold change vs veh, AEBP2 / RFU, SNHG1 /// SNORD22 /// SNORD25 /// SNORD26 /// SNORD27 /// SNORD28 /// SNORD29 /// SNORD31 / Fold change vs veh, SNHG1 /// SNORD22 /// SNORD25 /// SNORD26 /// SNORD27 /// SNORD28 /// SNORD29 /// SNORD31 / Fold change (Aza/veh), C12orf56 (ProbeSet 11735607_a_at) / Fold change (ACY-1035/veh), C12orf56 (ProbeSet 11735607_a_at) / Fold change (Aza/veh), FGFR1OP (ProbeSet 11751329_s_at) / Fold change (ACY-1035/veh), FGFR1OP (ProbeSet 11751329_s_at) / Fold change (Aza/veh), VPS36 (ProbeSet 11739960_a_at) / Fold change (ACY-1035/veh), VPS36 (ProbeSet 11739960_a_at) / RFU SYPL1 (11715823_x_at) / Fold change /veh SYPL1 (11715823_x_at) / RFU IGFBP7 (11715501_s_at) / Fold change /veh IGFBP7 (11715501_s_at) / RFU REEP3 (11722064_at) / Fold change /veh REEP3 (11722064_at) / RFU IGLL1 (11728026_x_at) / Fold change /veh IGLL1 (11728026_x_at): dose or concentration left out as unconfirmed. The settings on record: MV-4-11 cells, 48 hours.

Turning to `Nc1ncn([C@@H]2O[C@H](CO)[C@@H](O)[C@H]2O)c(=O)n1` [azacitidine], the “RFU RASL12 (11751679_a_at)” value stood at 15.38 RFU.
